IC50 data for 19 molecules are collected here from patent US10023592B2, “Bromodomain inhibitors” (Celgene Quanticel Research, Inc., priority 2013, dated 2018).

Assay [1] concerns NCI-H460, human non-small cell lung cancer cells. Description: Cell-MTS proliferation assay, NCI-H460. It is filed as cell-based. To be noted: Homo sapiens, 168 hr. The essentials: (§1)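 Seed: Raji 15,000, HL-60 5,000, NCI-H460 3,000 cells/96-well. +24 hr: 11-pt compound dilution, 100 μM–2.0 nM final. 7 d culture, MTS reagent, read OD490; IC50 vs DMSO, background subtracted.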
For assay [2], the system named is Raji, human Burkitts lymphoma cells. Nature of the assay: Cell-MTS proliferation assay, Raji. Type of assay: cell-based. To be noted: Homo sapiens, 168 hr. The essentials:
as §1
In general terms: Formazan colour is commonly taken as a measure of viable cells.

Assay [3] has as its system HL-60, human proleukemia cells. Nature of the assay: Cell-MTS proliferation assay, HL-60. Type of assay: cell-based. The conditions noted are these: Homo sapiens, 168 hr. The method in brief:
as §1

Another assay deals with BRD4(BD1) (Homo sapiens (Human), UniProt O60885). Nature of the assay: In vitro enzyme inhibition assay (BRD4 AlphaScreen). It is filed as binding. The method in brief: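 His-tagged BRD4 tested by AlphaScreen for binding of biotinylated H4K5/8/12/16-tetraacetyl peptide. After 20 min at room temperature, streptavidin donor and nickel chelate acceptor beads added (5 μg/mL final each). IC50 determined.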
In general terms: Alpha assays give light when donor and acceptor beads are brought close together.

Where [4] appears, read: NCI-H460, Cell-MTS proliferation.
Setting [5] is: in vitro enzyme inhibition assay.
The mark [6] stands for this setting: Cell-MTS proliferation, NCI-H460 cells.
The mark [7] stands for this setting: Cell-MTS proliferation, Raji cells.
The mark [8] stands for this setting: Cell-MTS proliferation, HL-60 cells.
The mark [9] stands for this setting: NCI-H460, Cell-MTS, class symbols A/B/C.
[10] abbreviates: Raji, Cell-MTS, class symbols A/B/C.
Setting [11] is: HL-60, Cell-MTS, class symbols A/B/C.

As a reminder, the IC50 is the midpoint of a concentration-inhibition curve. A high value points to weaker potency in that assay. `Cn1cc(-c2nc(NS(C)(=O)=O)ncc2OCC2CC2)c2c(c1=O)CCCC2` [Example 163, N-[5-(cyclopropylmethoxy)-4-(2-methyl-1-oxo-5,6,7,8-tetrahydroisoquinolin-4-yl)pyrimidin-2-yl]methanesulfonamide]: the IC50 in assay [1] (setting [4]) was over 5 µM; in assay [2] (Raji, Cell-MTS proliferation) it was under 500 nM; in assay [3] (HL-60, Cell-MTS proliferation), 500 to 5000 nM; on BRD4(BD1) (setting [5]), under 500 nM.
`CCS(=O)(=O)Nc1cnc(OCC2CC2)c(-c2cn(C)c(=O)c3oc(F)cc23)c1` [Example 261]: the IC50 was over 5 µM in assay [1] (setting [4]); under 500 nM in assay [2] (Raji, Cell-MTS proliferation); under 500 nM in assay [3] (HL-60, Cell-MTS proliferation); under 500 nM at BRD4(BD1) (setting [5]).
Take `CCS(=O)(=O)c1ccc(OCC2CC2)c(-c2cn(C)c(=O)c3cncn23)c1` [Example 368, 5-[2-(cyclopropylmethoxy)-5-ethylsulfonylphenyl]-7-methylimidazo[1,5-a]pyrazine-8-one]: the concentration for half-maximal inhibition (IC50) in assay [1] (setting [4]) is 0.5 to 5 µM; in assay [2] (Raji, Cell-MTS proliferation) it was under 500 nM; in assay [3] (HL-60, Cell-MTS proliferation), under 500 nM; at BRD4(BD1) (setting [5]), under 500 nM.
On to `Cn1cc(-c2cc(CS(C)(=O)=O)ccc2OCC(F)(F)F)cc(Cl)c1=O` [Example 418, 3-chloro-1-methyl-5-[5-(methylsulfonylmethyl)-2-(2,2,2-trifluoroethoxy)phenyl]pyridin-2-one], for which the IC50 in assay [1] (setting [6]) is over 5 µM; in assay [2] (setting [7]), 500 to 5000 nM; in assay [3] (setting [8]), under 500 nM; against BRD4(BD1) (setting [5]), under 500 nM.
Take `CCS(=O)(=O)Nc1cnc(Oc2ccc(F)cc2F)c(-c2cn(C)c(=O)c3occc23)c1` [Example 256, N-[6-(2,4-difluorophenoxy)-5-(6-methyl-7-oxofuro[2,3-c]pyridin-4-yl)pyridine-3-yl]ethanesulfonamide]: the half-maximal inhibitory concentration (IC50) in assay [1] (setting [4]) is over 5 µM; in assay [2] (Raji, Cell-MTS proliferation), under 500 nM; in assay [3] (HL-60, Cell-MTS proliferation), under 500 nM; against BRD4(BD1) (setting [5]) it was under 500 nM.
Turning to `CCS(=O)(=O)Nc1ncc(Oc2ccc(F)cc2F)c(-c2cn(C)c(=O)c3occc23)n1` [Example 263, N-[5-(2,4-difluorophenoxy)-4-(6-methyl-7-oxofuro[2,3-c]pyridin-4-yl)pyrimidin-2-yl]ethanesulfonamide], the half-inhibitory concentration (IC50) is over 5 µM in assay [1] (setting [4]); under 500 nM in assay [2] (Raji, Cell-MTS proliferation); under 500 nM in assay [3] (HL-60, Cell-MTS proliferation); under 500 nM against BRD4(BD1) (setting [5]).
With `CCS(=O)(=O)Nc1ccc(Oc2ccc(F)cc2F)c(-c2cn(C)c(=O)c3nc(C)oc23)c1` [Example 241, N-[4-(2,4-difluorophenoxy)-3-(2,5-dimethyl-4-oxo-[1,3]oxazolo[4,5-c]pyridin-7-yl)phenyl]ethanesulfonamide], the IC50 was over 5 µM in assay [1] (setting [4]); under 500 nM in assay [2] (Raji, Cell-MTS proliferation); under 500 nM in assay [3] (HL-60, Cell-MTS proliferation); under 500 nM on BRD4(BD1) (setting [5]).
For `CCS(=O)(=O)Nc1ncc(OCC2CC2)c(-c2cn(C)c(=O)c3ccccc23)n1` [Example 155, N-[5-(cyclopropylmethoxy)-4-(2-methyl-1-oxoisoquinolin-4-yl)pyrimidin-2-yl]ethanesulfonamide], the 50% inhibitory concentration (IC50) in assay [1] (setting [4]) is over 5 µM; in assay [2] (Raji, Cell-MTS proliferation), under 500 nM; in assay [3] (HL-60, Cell-MTS proliferation), under 500 nM; against BRD4(BD1) (setting [5]), under 500 nM.
Turning to `Cn1cc(-c2cc(CS(C)(=O)=O)ccc2Oc2ccc(F)cc2F)ccc1=O` [Example 470, 5-[2-(2,4-difluorophenoxy)-5-(methylsulfonylmethyl)phenyl]-1-methylpyridin-2-one], the IC50 in assay [1] (setting [6]) is 0.5 to 5 µM; in assay [2] (setting [7]), under 500 nM; in assay [3] (setting [8]), under 500 nM; at BRD4(BD1) (setting [5]) it was under 500 nM.
As for `CCS(=O)(=O)Nc1ccc(OC2CCCOC2)c(-c2cc(C)c(=O)n(C)c2)c1` (stereo not shown) [Example 448, N-[3-(1,5-dimethyl-6-oxopyridin-3-yl)-4-(oxan-3-yloxy)phenyl]ethanesulfonamide], the half-inhibitory concentration (IC50) is over 5 µM in assay [1] (setting [6]), under 500 nM in assay [2] (setting [7]), under 500 nM in assay [3] (setting [8]) and under 500 nM at BRD4(BD1) (setting [5]).
On to `CCS(=O)(=O)Nc1ccc(O[C@H]2CC[C@@H](O)CC2)c(-c2cc(C)c(=O)n(C)c2)c1` [Example 431, N-[3-(1,5-dimethyl-6-oxopyridin-3-yl)-4-(cis-4-hydroxycyclohexyl)oxyphenyl]ethanesulfonamide], for which the IC50 in assay [1] (setting [6]) was over 5 µM; in assay [2] (setting [7]) it was 500 to 5000 nM; in assay [3] (setting [8]) it was under 500 nM; against BRD4(BD1) (setting [5]), under 500 nM.
Take `Cn1cc(-c2cc(S(N)(=O)=O)ccc2Oc2ccc(F)cc2F)ccc1=O` [Example 118, 4-(2,4-difluorophenoxy)-3-(1-methyl-6-oxopyridin-3-yl)benzenesulfonamide]: the IC50 in assay [1] (setting [9]) is over 5 µM; in assay [2] (setting [10]), under 500 nM; in assay [3] (setting [11]) it was under 500 nM; against BRD4(BD1) (class symbols A/B/C), under 500 nM.
In the case of `Cc1cc(-c2cc(S(C)(=O)=O)ccc2OC2CCOC2)cn(C)c1=O` (stereo not shown) [Example 426, 1,3-dimethyl-5-[5-methylsulfonyl-2-(oxolan-3-yloxy)phenyl]pyridin-2-one], the IC50 in assay [1] (setting [6]) was over 5 µM; in assay [2] (setting [7]), 500 to 5000 nM; in assay [3] (setting [8]) it was 500 to 5000 nM; against BRD4(BD1) (setting [5]), under 500 nM.
`Cc1cc(-c2cc(OCCc3ccccc3)cc(S(C)(=O)=O)c2)cn(C)c1=O` [Example 326, 1,3-dimethyl-5-[3-methylsulfonyl-5-(2-phenylethoxy)phenyl]pyridin-2-one]: the half-maximal inhibitory concentration (IC50) was over 5 µM in assay [1] (setting [4]); 500 to 5000 nM in assay [2] (Raji, Cell-MTS proliferation); 500 to 5000 nM in assay [3] (HL-60, Cell-MTS proliferation); under 500 nM on BRD4(BD1) (setting [5]).
Take `CCS(=O)(=O)Cc1ccc(Oc2ccc(F)cc2F)c(-c2cc(OCC(F)(F)F)c(=O)n(C)c2)c1` [Example 292, 5-[2-(2,4-difluorophenoxy)-5-(ethylsulfonylmethyl)phenyl]-1-methyl-3-(2,2,2-trifluoroethoxy)pyridin-2-one]: the IC50 was over 5 µM in assay [1] (setting [4]); 500 to 5000 nM in assay [2] (Raji, Cell-MTS proliferation); under 500 nM in assay [3] (HL-60, Cell-MTS proliferation); under 500 nM against BRD4(BD1) (setting [5]).
Regarding `Cc1cc(-c2cc(S(C)(=O)=O)ccc2OCC2CC2)nn(C)c1=O` [Example 136, 6-[2-(cyclopropylmethoxy)-5-methylsulfonylphenyl]-2,4-dimethylpyridazin-3-one], the concentration for half-maximal inhibition (IC50) was over 5 µM in assay [1] (setting [9]), over 5000 nM in assay [2] (setting [10]), 500 to 5000 nM in assay [3] (setting [11]) and 500 to 5000 nM at BRD4(BD1) (class symbols A/B/C).
With `CCS(=O)(=O)c1cnc(OCC2CC2)c(-c2cn(C)c(=O)c3ccccc23)c1` [Example 322, 4-[2-(cyclopropylmethoxy)-5-ethylsulfonylpyridin-3-yl]-2-methylisoquinolin-1-one], the IC50 was over 5 µM in assay [1] (setting [4]); under 500 nM in assay [2] (Raji, Cell-MTS proliferation); under 500 nM in assay [3] (HL-60, Cell-MTS proliferation); under 500 nM on BRD4(BD1) (setting [5]).
Take `CCS(=O)(=O)Nc1ccc(Cl)c(-c2cn(C)c(=O)c3ccc(-c4cnn(C)c4)cc23)c1` [Example 45, N-[4-chloro-3-[2-methyl-6-(1-methylpyrazol-4-yl)-1-oxoisoquinolin-4-yl]phenyl]ethanesulfonamide]: the IC50 was 0.5 to 5 µM in assay [1] (setting [9]), under 500 nM in assay [2] (setting [10]), under 500 nM in assay [3] (setting [11]) and under 500 nM at BRD4(BD1) (class symbols A/B/C).
`CCS(=O)(=O)Nc1cc(Oc2ccc(F)cc2F)cc(-c2cc(C)c(=O)n(C)c2)c1` [Example 342, N-[3-(2,4-difluorophenoxy)-5-(1,5-dimethyl-6-oxopyridin-3-yl)phenyl]ethanesulfonamide]: the IC50 in assay [1] (setting [4]) is 0.5 to 5 µM; in assay [2] (Raji, Cell-MTS proliferation) it was under 500 nM; in assay [3] (HL-60, Cell-MTS proliferation) it was under 500 nM; at BRD4(BD1) (setting [5]), under 500 nM.
